Several values for one entry are separate records, joined by “and”; a condition that tells them apart may be missing. Identical values can stand only once.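 Growth conditions: 96-well plates. Treatment: test compound, 48 hours, 5 concentrations. Analysis: linear interpolation between bracketing concentrations; unreached endpoints set to highest concentration. The concentration for 50% growth inhibition is given as GI50.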 Activity calls are given as the source filed them. Rule as the data show it: active = GI50 up to about 1.1 µM and inactive = higher. Square brackets hold non-standard residues; d marks the D form. Peptide text beside a SMILES is read from it. * marks the point of attachment. Phe(4-NO2) = N[CH](Cc1ccc([N+](=O)[O-])cc1)C(=O)O; Cbz = O=C(OCc1ccccc1)*
Tests used:
Test in all cases: growth of human tumour cells (NCI), 48 h
A498 = test system: A498
CCRF-CEM = test system: CCRF-CEM
HCC 2998 = test system: HCC 2998
HCT-116 = test system: HCT-116
Hs-578T = test system: Hs-578T
K562 = test system: K562
KM12 = test system: KM12
MDA-MB-231 = test system: MDA-MB-231
MDA-MB-435 = test system: MDA-MB-435
Malme-3M = test system: Malme-3M
PC-3 = test system: PC-3
RXF 393 = test system: RXF 393
SF-295 = test system: SF-295
SN12C = test system: SN12C
SR = test system: SR
T47D = test system: T47D
TK-10 = test system: TK-10
KM-20L2 = test system: KM-20L2
SNB-78 = test system: SNB-78
BT-549 = test system: BT-549

| SMILES | GI50 (A498) | GI50 (CCRF-CEM) | GI50 (HCC 2998) | GI50 (HCT-116) | GI50 (Hs-578T) | GI50 (K562) | GI50 (KM12) | GI50 (MDA-MB-231) | GI50 (MDA-MB-435) | GI50 (Malme-3M) | GI50 (PC-3) | GI50 (RXF 393) | GI50 (SF-295) | GI50 (SN12C) | GI50 (SR) | GI50 (T47D) | GI50 (TK-10) | GI50 (KM-20L2) | GI50 (SNB-78) | GI50 (BT-549) |
| --- | --- | --- | --- | --- | --- | --- | --- | --- | --- | --- | --- | --- | --- | --- | --- | --- | --- | --- | --- | --- |
| CON(C)c1nc(N(C)OC)nc(N(C)OC)n1 | > 10 µM (inactive) | > 10 µM (inactive) | > 10 µM (inactive) | > 10 µM (inactive) | > 10 µM (inactive) | > 10 µM (inactive) | > 10 µM (inactive) | > 10 µM (inactive) | > 10 µM (inactive) | > 10 µM (inactive) | > 10 µM (inactive) | > 10 µM (inactive) | > 10 µM (inactive) | > 10 µM (inactive) | > 10 µM (inactive) | > 10 µM (inactive) | > 10 µM (inactive) |  |  |  |
| COC(=O)C(C(=O)C(=O)Nc1nnc(S)[nH]1)c1csc(-n2nc(-c3ccccc3)cc2-c2ccccc2)n1 (centres undefined) | > 100 µM (inactive) | > 100 µM (inactive) | > 100 µM (inactive) | > 100 µM (inactive) |  | > 100 µM (inactive) | > 100 µM (inactive) |  |  | > 100 µM (inactive) |  | > 100 µM (inactive) |  | > 100 µM (inactive) | > 100 µM (inactive) |  | > 100 µM (inactive) | > 100 µM (inactive) | > 100 µM (inactive) |  |
| N#CN=C(NCCO)NCCO | 92.7 µM (inactive) | > 100 µM (inactive) | > 100 µM (inactive) | > 100 µM (inactive) |  |  | > 100 µM (inactive) |  |  | > 100 µM (inactive) |  |  | > 100 µM (inactive) | > 100 µM (inactive) | > 100 µM (inactive) |  |  | > 100 µM (inactive) | > 100 µM (inactive) |  |
| O=C(N/N=C/c1cc(Br)cc(Br)c1O)c1ccccc1O |  |  | 1.03 µM (active) | 1.82 µM (inactive) |  |  | 1.43 µM (inactive) |  |  | 1.56 µM (inactive) |  | 0.929 µM (active) | 0.9 µM (active) |  | 0.258 µM (active) |  | 0.944 µM (active) | 2 µM (inactive) |  |  |
| O=C(NC1C=Nc2ccc([N+](=O)[O-])cc2NC1=O)c1cc(Cl)cc([N+](=O)[O-])c1 (centres undefined) | > 100 µM (inactive) | 20.8 µM (inactive) | > 100 µM (inactive) | > 100 µM (inactive) |  | 38.8 µM (inactive) | 54.3 µM (inactive) |  |  |  |  | > 100 µM (inactive) | > 100 µM (inactive) | > 100 µM (inactive) | 72.3 µM (inactive) |  | > 100 µM (inactive) | > 100 µM (inactive) | > 100 µM (inactive) |  |
| N#Cc1c(OCCF)c2ccccc2n2c1nc1ccccc12 | 1.94 µM (inactive) | 95.7 µM (inactive) | > 100 µM (inactive) | 11.2 µM (inactive) | 17.3 µM (inactive) | > 100 µM (inactive) | > 100 µM (inactive) | > 100 µM (inactive) | 46.5 µM (inactive) |  | 59.2 µM (inactive) | 17.3 µM (inactive) | 23.9 µM (inactive) |  | > 100 µM (inactive) | > 100 µM (inactive) | 31.1 µM (inactive) |  |  |  |
| Cc1cc(C)nc(NS(=O)(=O)c2ccc(NNC(=O)c3cccc4c(=O)c5ccccc5[nH]c34)cc2)n1 |  | 35.4 µM (inactive) | 44.9 µM (inactive) | 48.9 µM (inactive) | 61.7 µM (inactive) | 41 µM (inactive) | 39.5 µM (inactive) | 37.6 µM (inactive) | 61.8 µM (inactive) | 49.9 µM (inactive) | 38.4 µM (inactive) | 36 µM (inactive) | 80.5 µM (inactive) | 96.6 µM (inactive) | 37.5 µM (inactive) | 26.1 µM (inactive) | > 100 µM (inactive) |  |  | 53.5 µM (inactive) |
| COc1nc(C#CCC(C)O)nc(OC)n1 (centres undefined) | 30.5 µM (inactive) |  |  | 14.9 µM (inactive) | 25.7 µM (inactive) | 38.2 µM (inactive) | 24.5 µM (inactive) | 21.2 µM (inactive) | 17.9 µM (inactive) | 11.5 µM (inactive) | 22.6 µM (inactive) | 7.38 µM (inactive) | 30.6 µM (inactive) | 19.5 µM (inactive) | 21.1 µM (inactive) | 47.8 µM (inactive) | 24.2 µM (inactive) |  |  | 18.4 µM (inactive) |
| Oc1ccc2ccccc2c1/N=N/c1ccccc1 | > 100 µM (inactive) | > 100 µM (inactive) | > 100 µM (inactive) | > 100 µM (inactive) | > 57.3 µM (inactive) and 35.4 µM (inactive) | > 100 µM (inactive) and 91 µM (inactive) |  | 54.5 µM (inactive) and > 82.4 µM (inactive) | > 100 µM (inactive) | > 100 µM (inactive) | > 87.9 µM (inactive) | > 100 µM (inactive) |  | > 100 µM (inactive) | > 100 µM (inactive) |  | 73.3 µM (inactive) |  |  | > 100 µM (inactive) |
| CCN1CCC(O)(C(C(=O)O)c2ccccc2)CC1 (centres undefined) | > 100 µM (inactive) | > 100 µM (inactive) | > 100 µM (inactive) |  | > 100 µM (inactive) | > 100 µM (inactive) | > 100 µM (inactive) | > 100 µM (inactive) | > 100 µM (inactive) | > 100 µM (inactive) | > 100 µM (inactive) | > 100 µM (inactive) | > 100 µM (inactive) |  | > 100 µM (inactive) | > 100 µM (inactive) | > 100 µM (inactive) |  |  | > 100 µM (inactive) |
| CCOC(=O)CCC(NC(=O)OCc1ccccc1)C(=O)NC(CCC(=O)OCC)C(=O)NC(CCC(=O)OCC)C(=O)NC(CCC(=O)OCC)C(=O)NC(CCC(=O)OCC)C(=O)NC(Cc1ccc([N+](=O)[O-])cc1)C(=O)NC(CCC(=O)OCC)C(=O)NC(CCC(=O)OCC)C(=O)NC(CCC(=O)OCC)C(=O)NC(CCC(=O)OCC)C(=O)NC(CCC(=O)OCC)C(=O)OCC (centres undefined) (Cbz-E(OEt)E(OEt)E(OEt)E(OEt)E(OEt)[Phe(4-NO2)]E(OEt)E(OEt)E(OEt)E(OEt)E(OEt)-OEt; configuration not given here) | > 50 µM (inactive) | > 50 µM (inactive) | > 50 µM (inactive) |  | > 50 µM (inactive) | > 50 µM (inactive) | > 50 µM (inactive) | > 5 µM (inactive) | > 50 µM (inactive) | > 50 µM (inactive) | > 50 µM (inactive) | > 50 µM (inactive) |  | > 50 µM (inactive) | > 50 µM (inactive) | > 50 µM (inactive) | > 50 µM (inactive) |  |  | > 50 µM (inactive) |
| COc1ccc(/C(Cl)=C(\C=O)c2ccc(F)cc2)cc1OC | 20 µM (inactive) | 10.7 µM (inactive) |  | 15.4 µM (inactive) |  | 16.8 µM (inactive) |  |  |  | 30.5 µM (inactive) |  |  | 21.6 µM (inactive) | 15.9 µM (inactive) |  |  | 34.3 µM (inactive) | 16.2 µM (inactive) | 15.3 µM (inactive) |  |
| CC1=C2C(O)C(C(C)C(=O)NC(C)C)CCC2(C)C=CC1=O (centres undefined) | > 100 µM (inactive) | > 100 µM (inactive) | > 100 µM (inactive) | > 100 µM (inactive) |  | > 100 µM (inactive) | > 100 µM (inactive) |  |  |  |  | > 100 µM (inactive) | > 100 µM (inactive) | > 100 µM (inactive) |  |  |  | > 100 µM (inactive) | > 100 µM (inactive) |  |
